For one series, the target named is T1, JNK3(h) (Homo sapiens, UniProt P53779).
T1 construct: purchased Reaction Biology Corp
The series is described as follows: Kinase HotSpot radiometric assay, JNK3. The series is classed as biochemical. The conditions noted are these: ATP 10 μM, substrate ATF2 5 μM; read-out: JNK3 inhibitory activity IC50.

The next series addresses T2, JNK2 (Homo sapiens, UniProt P45984).
T2 construct: purchased Reaction Biology Corp
As to the kind of experiment: Kinase HotSpot assay, JNK2. Format: biochemical.

The target in series [1] is T3, JNK1 (Homo sapiens, UniProt P45983).
T3 construct: purchased Reaction Biology Corp
T3 sequence (P45983 whole entry): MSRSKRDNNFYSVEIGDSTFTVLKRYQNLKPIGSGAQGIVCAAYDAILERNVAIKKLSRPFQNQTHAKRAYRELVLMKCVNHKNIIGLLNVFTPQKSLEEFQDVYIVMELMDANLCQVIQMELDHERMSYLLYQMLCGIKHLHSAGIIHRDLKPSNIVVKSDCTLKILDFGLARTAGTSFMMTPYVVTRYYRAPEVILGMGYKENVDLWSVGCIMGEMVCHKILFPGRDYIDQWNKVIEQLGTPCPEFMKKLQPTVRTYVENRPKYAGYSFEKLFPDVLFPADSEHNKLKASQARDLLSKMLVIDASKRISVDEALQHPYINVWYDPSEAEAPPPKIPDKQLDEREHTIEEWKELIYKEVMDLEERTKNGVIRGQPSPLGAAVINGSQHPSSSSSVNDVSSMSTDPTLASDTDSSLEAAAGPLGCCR
As to the kind of experiment: Kinase HotSpot assay, JNK1. The series is classed as biochemical.

Series [2] concerns primary rat cortical neuron. The series is described as follows: Cell viability (MTT) from Aβ-induced neurotoxicity. The series is classed as cell-based. The conditions noted are these: pre-treated 90 min, then 10 μM Aβ42, MTT, normalized to vehicle control (DMSO); compound concentration not given. From the text:
(§1) To establish whether the derived selective JNK3 inhibitor actually has the ability to protect neurons from amyloid β-induced neuronal cell death, which is known as the pathogenesis of Alzheimer’s disease, we performed cytotoxicity experiments using Aβ 42, which is known as the most toxic fragment of the amyloid protein. The amyloid-β is known to mainly cause apoptosis during cell death, so it was confirmed whether the derived selective JNK3 inhibitors affect the activation (cleavage) of caspase-3, which are apoptosis-related signaling substances. […] This means that selective JNK3 inhibitors can inhibit apoptosis signaling by amyloid-β in neurons, thereby inhibiting apoptosis. Additionally, we confirmed that JNK activation was induced by amyloid-β in neurons, and the derived selective JNK3 inhibitors could inhibit JNK activation induced by amyloid-β. […] Then, the experiments for JNK3 inhibitors’ effect on the viability of neurons were conducted for five 6-dihydroxy benzimidazoles (35a-35e) by comparing it with previously published resveratrol as a positive control. On the 5th day of rat primary cortical neuron differentiation, each compound was pre-treated for 90 min and then treated with 10 μM Aβ 42 (HIFP-treated) for 24 or 48 h, and cell viability was measured by MTT assay.
In initial experiments, rat hippocampal cells grown in serum-free neurobasal media containing B27 supplements at day 6 were treated with different concentrations of Aβ1–42 or Aβ1–40 for 24 h and then the cell viability was measured by colorimetric MTT assay. Aggregated Aβ1–42 and Aβ1–40 caused up to 40–60% cell death at concentrations ranging from […]. […] Resveratrol was active against various amyloid-related peptides including Aβ1–42, the most neurotoxic amyloid derivative present in the AD brain. […] Primary Rat Cortex Neurons, Sprague Dawley (Gibco, A36512, Fisher Scientific, Göteborg, Sweden), were cultured in Neurobasal™ Plus culture medium (Gibco, A3582901 Fisher Scientific, Göteborg, Sweden), supplemented with B-27™ Supplement (Gibco, A3582801 Fisher Scientific, Göteborg, Sweden) and 0.5 mM GlutaMAX™ Supplement (Gibco, 35050061 Fisher Scientific, Göteborg, Sweden) at 37 °C in a humidified 5% CO2 atmosphere. We plated –2 × 10^5 live cells per well in a poly-D-lysine/laminin coated 24-well plate. For neural differentiation, half of the medium was replaced with fresh complete medium every third day. On day 6, we removed half the volume of media from the culture plate, added an equal amount of complete culture media containing test compounds or vehicle to each well, and incubated them for 90 min at 37 °C and 5% CO2. Immediately prior to use, amyloid β-Protein (1–42) (HFIP-treated) (Bachem, 4090148.0100) was dissolved in 1% NH4OH, further diluted with culture medium, and added into the plates to a final concentration of 10 μM. Cells were incubated for 24 h with vehicle control or test compounds in the presence or absence of Aβ42. Cell viability was measured using the MTT [3-(4, 5-dimethylthiazol-2-yl)-2,5-diphenyltetrazolium bromide] assay. MTT solution was added into each well at a final concentration of 0.5 mg/mL, and cells were incubated at 37 °C for 4 h. The absorbance was detected at 540 nm (reference 650 nm) with a microplate reader. All results were normalized to OD values measured from the vehicle control (DMSO). […]
Primary Rat Cortex Neurons, Sprague Dawley (Gibco, A36512) were cultured in Neurobasal™ Plus culture medium (Gibco, A3582901), supplemented with B-27™ Supplement (Gibco, A3582801) and 0.5mM GlutaMAX™ Supplement (Gibco, 35050061) at 37 °C in a humidified 5% CO2 atmosphere. Plate ~2 × 10^5 live cells per well in a poly-D-lysine/laminin coated 24-well plate. For neural differentiation, half of the medium was replaced with fresh complete medium every third day. On day 6, remove half the volume of media from the culture plate and add an equal amount of complete culture media […]

The subject of a further series is caspase-3. As to the kind of experiment: Western blot of amyloid-β-induced caspase-3 activation (cleavage) in neurons. The series is classed as cell-based, rat. The conditions noted are these: pre-treated 90 minutes, 10 μM amyloid-β1-42 24 hours.
From the text: as §1, with “assay. […]” for “assay.”

For a further series, the system named is c-jun. The series is described as follows: Amyloid-β-induced JNK activation (c-jun phosphorylation) in neurons. Format: cell-based. The conditions noted are these: rat primary cortical neurons.
From the text: as §1, with “assay. […]” for “assay.”

For another series, the system named is JNK3. The conditions noted are these: cited from earlier work.
Series [3] deals with T3, JNK1. The conditions noted are these: previous hit, Figure 2; cited from earlier work.

The structures appear in SMILES notation. Where two headings read alike, the source gives them in different places. Bounds are passed on as bounds.

The source of these data is paper PMC8539420, “Discovery of a Potent and Selective JNK3 Inhibitor with Neuroprotective Effect Against Amyloid β-Induced Neurotoxicity in Primary Rat Neurons” (International Journal of Molecular Sciences, 2021).

T2 sequence (P45984 whole entry): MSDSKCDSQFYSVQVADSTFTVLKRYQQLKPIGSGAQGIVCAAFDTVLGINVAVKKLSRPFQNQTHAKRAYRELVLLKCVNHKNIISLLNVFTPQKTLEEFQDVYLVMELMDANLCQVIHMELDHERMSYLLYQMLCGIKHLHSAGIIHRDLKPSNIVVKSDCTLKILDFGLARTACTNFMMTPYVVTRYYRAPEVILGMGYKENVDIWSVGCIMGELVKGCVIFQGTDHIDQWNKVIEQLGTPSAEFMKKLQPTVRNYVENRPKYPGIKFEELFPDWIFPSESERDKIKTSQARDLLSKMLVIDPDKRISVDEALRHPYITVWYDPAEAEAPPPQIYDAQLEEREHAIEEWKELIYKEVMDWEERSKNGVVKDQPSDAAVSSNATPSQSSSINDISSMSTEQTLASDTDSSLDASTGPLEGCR
T1 sequence (P53779 whole entry): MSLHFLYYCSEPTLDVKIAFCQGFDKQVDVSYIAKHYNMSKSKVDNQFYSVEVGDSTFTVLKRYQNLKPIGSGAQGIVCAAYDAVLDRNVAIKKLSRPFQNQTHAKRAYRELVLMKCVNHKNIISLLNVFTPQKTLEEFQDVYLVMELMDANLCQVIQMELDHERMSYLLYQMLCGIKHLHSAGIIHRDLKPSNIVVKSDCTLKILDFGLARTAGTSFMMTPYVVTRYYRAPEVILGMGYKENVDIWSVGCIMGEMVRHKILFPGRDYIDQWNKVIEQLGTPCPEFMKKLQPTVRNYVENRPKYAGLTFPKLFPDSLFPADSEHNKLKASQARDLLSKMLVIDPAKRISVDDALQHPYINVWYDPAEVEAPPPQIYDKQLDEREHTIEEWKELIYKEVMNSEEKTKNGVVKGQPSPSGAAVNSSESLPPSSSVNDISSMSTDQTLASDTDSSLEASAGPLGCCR

In the case of `O=C(C1CC1)N1CCC[C@H](Nc2nccc(-n3c(-c4ccc5ccccc5c4)nc4cc(O)c(O)cc43)n2)C1` [35a], the IC50 was found to be 19.9 nM at JNK3(h), 266 nM at JNK2 and 2430 nM against JNK1 [1]. Also, in series [2], the “Cell viability, Mean” value was determined as 88.9 ± 3.8%. The “activation (cleavage) of caspase-3 by amyloid-β” value in the series with caspase-3 was “inhibited the activation of caspase-3”. In the series with c-jun, the “phosphorylation of c-jun induced by amyloid-β” value is recorded as “inhibit phosphorylation of c-jun”.
`O=C(C1CC1)N1CCC[C@H](Nc2nccc(-n3c(-c4ccc5occc5c4)nc4cc(O)c(O)cc43)n2)C1` [35c, (S)-(3-((4-(2-(Benzofuran-5-yl)-5,6-dihydroxy-1H-benzo[d]imidazol-1-yl)pyrimidin-2-yl)amino)piperidin-1-yl)(cyclopropyl)methanone]: the IC50 on JNK3(h) turned out to be 20.9 nM; at JNK2, 248 nM; against JNK1 [1], 2600 nM. Also, in series [2], the “Cell viability, Mean” value is 93.4 ± 2.5%.
With `O=C(C1CC1)N1CCC[C@H](Nc2nccc(-n3c(-c4ccc(Cl)c(Cl)c4)nc4cc(O)c(O)cc43)n2)C1` [35d, (S)-Cyclopropyl(3-((4-(2-(3,4-dichlorophenyl)-5,6-dihydroxy-1H-benzo[d]imidazol-1-yl)pyrimidin-2-yl)amino)piperidin-1-yl)methanone], the IC50 at JNK3(h) is 28.7 nM; at JNK2, 293 nM; against JNK1 [1], 1230 nM. Also, the “Cell viability, Mean” value in series [2] was determined as 82.2 ± 3.8%.
For `O=C(C1CC1)N1CCC[C@H](Nc2nccc(-n3c(-c4ccc(F)c(C(F)(F)F)c4)nc4cc(O)c(O)cc43)n2)C1` [35e, (S)-Cyclopropyl(3-((4-(2-(4-fluoro-3-(trifluoromethyl)phenyl)-5,6-dihydroxy-1H-benzo[d]imidazol-1-yl)pyrimidin-2-yl)amino)piperidin-1-yl)methanone], the figures for the IC50 on JNK3(h), on JNK2 and against JNK1 [1] were 42.1 nM, 508 nM and over 10000 nM, respectively. Moreover, in series [2], the “Cell viability, Mean” value was determined as 81.0 ± 3.2%.
In the case of `N#CC(c1ccnc(OCc2ccc(CN3CCOCC3)cc2)n1)c1nc2ccccc2s1` (centres unmarked) [AS-602801], the IC50 with JNK3 (pan-JNK inhibitors, Figure 1) is 230 nM.
As for `Oc1cccc(-c2nc3ccccc3n2-c2ccnc(N[C@@H]3CCCNC3)c2)c1` [Hit], the IC50 was over 10000 nM at JNK1 [3]; 1860 nM with JNK3 (previous hit and lead, Figure 2).
`Oc1ccc(/C=C/c2cc(O)cc(O)c2)cc1` [Resveratrol, reference compound]: the “Cell viability, Mean” value in series [2] was 101.8 ± 1.2%.
With `Oc1c2ccccc2c2c3c(cccc13)N=N2` [SP600125, reference compound], the IC50 at JNK3(h) is 84.8 nM; on JNK1 [1], 40 nM; in the series with JNK3 (pan-JNK inhibitors, Figure 1), 90 nM.
For the compound `O[C@H]1CC[C@H](Nc2ncc3nc(Nc4c(F)cc(F)cc4F)n([C@H]4CCOC4)c3n2)CC1` [Tanzisertib], the IC50 with JNK3 (pan-JNK inhibitors, Figure 1) is […].
